Data reported in ChEMBL document CHEMBL3991601, “The target landscape of clinical kinase drugs” (Science, 2017).
Active and inactive are the calls of the source. Rule as the data show it, for most assays here: actives have a measured Kd and inactives only a lower limit.

Experiments:
[1] = target: Cyclin-dependent kinase 13 (Homo sapiens, UniProt Q14004)
[2] = target: T1, Serine/threonine-protein kinase 4 (Homo sapiens, UniProt Q13043)
T1 sequence (Q13043 whole entry): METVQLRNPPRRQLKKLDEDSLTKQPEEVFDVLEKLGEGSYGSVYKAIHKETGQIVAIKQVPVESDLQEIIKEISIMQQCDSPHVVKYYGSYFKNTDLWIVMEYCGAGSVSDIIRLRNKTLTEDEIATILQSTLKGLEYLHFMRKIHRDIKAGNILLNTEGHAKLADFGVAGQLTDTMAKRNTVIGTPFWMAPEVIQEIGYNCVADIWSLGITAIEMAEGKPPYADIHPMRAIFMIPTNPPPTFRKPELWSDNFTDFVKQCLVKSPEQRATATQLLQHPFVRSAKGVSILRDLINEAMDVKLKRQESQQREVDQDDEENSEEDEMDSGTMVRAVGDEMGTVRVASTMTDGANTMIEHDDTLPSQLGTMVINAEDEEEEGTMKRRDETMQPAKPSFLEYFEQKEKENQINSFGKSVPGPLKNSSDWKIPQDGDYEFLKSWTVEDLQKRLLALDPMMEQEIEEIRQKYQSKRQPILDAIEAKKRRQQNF

[3] = target: High affinity nerve growth factor receptor (Homo sapiens, UniProt P04629)
High affinity nerve growth factor receptor, sequence (P04629 whole entry): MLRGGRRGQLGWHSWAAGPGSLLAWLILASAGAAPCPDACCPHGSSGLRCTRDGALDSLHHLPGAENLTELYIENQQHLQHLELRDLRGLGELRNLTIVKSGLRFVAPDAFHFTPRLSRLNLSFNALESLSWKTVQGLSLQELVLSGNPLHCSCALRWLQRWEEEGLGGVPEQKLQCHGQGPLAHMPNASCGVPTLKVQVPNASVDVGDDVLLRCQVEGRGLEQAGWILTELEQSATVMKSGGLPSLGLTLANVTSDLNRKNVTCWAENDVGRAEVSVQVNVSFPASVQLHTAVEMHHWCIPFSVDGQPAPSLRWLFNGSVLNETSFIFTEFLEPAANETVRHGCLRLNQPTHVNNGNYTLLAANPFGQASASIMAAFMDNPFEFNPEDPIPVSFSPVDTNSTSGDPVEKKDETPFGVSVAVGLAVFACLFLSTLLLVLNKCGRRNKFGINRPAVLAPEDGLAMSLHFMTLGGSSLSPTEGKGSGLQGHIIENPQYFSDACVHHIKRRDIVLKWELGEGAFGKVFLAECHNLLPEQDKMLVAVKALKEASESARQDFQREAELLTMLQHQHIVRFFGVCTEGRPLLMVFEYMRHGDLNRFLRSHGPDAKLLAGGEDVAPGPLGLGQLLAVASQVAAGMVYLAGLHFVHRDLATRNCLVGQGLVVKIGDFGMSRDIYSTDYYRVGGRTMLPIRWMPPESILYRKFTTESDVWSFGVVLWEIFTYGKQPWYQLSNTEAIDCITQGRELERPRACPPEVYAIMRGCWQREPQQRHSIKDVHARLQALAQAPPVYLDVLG

[4] = target: T2, Ephrin type-B receptor 6 (Homo sapiens, UniProt O15197)
T2 sequence (O15197 whole entry): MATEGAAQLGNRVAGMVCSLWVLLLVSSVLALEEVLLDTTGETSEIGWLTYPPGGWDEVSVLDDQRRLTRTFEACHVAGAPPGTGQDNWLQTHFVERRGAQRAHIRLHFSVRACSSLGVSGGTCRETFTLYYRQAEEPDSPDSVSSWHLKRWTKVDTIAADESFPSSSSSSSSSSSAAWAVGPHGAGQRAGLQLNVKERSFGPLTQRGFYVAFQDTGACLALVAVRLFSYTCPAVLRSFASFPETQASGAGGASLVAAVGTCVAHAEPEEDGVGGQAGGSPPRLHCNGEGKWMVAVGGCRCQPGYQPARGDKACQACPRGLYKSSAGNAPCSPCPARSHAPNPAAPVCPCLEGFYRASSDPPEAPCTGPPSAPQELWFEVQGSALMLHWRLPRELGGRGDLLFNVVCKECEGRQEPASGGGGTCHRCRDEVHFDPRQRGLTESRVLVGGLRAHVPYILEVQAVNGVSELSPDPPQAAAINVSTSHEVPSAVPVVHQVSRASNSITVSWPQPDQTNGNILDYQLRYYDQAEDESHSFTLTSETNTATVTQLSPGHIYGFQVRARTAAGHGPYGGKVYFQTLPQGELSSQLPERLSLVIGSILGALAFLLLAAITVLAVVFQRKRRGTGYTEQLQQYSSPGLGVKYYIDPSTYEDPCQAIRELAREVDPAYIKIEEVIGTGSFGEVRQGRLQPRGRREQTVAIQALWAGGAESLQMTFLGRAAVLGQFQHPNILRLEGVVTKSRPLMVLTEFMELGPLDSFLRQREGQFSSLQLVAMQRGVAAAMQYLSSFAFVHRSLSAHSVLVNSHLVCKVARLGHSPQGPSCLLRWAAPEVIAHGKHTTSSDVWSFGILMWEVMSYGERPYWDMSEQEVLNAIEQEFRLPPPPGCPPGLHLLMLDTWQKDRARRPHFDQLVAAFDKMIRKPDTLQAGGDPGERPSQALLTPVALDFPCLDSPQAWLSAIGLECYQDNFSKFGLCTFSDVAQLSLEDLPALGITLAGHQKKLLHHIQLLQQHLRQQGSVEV

[5] = target: G protein-coupled receptor kinase 6 (Homo sapiens, UniProt P43250)
G protein-coupled receptor kinase 6, sequence (P43250 whole entry): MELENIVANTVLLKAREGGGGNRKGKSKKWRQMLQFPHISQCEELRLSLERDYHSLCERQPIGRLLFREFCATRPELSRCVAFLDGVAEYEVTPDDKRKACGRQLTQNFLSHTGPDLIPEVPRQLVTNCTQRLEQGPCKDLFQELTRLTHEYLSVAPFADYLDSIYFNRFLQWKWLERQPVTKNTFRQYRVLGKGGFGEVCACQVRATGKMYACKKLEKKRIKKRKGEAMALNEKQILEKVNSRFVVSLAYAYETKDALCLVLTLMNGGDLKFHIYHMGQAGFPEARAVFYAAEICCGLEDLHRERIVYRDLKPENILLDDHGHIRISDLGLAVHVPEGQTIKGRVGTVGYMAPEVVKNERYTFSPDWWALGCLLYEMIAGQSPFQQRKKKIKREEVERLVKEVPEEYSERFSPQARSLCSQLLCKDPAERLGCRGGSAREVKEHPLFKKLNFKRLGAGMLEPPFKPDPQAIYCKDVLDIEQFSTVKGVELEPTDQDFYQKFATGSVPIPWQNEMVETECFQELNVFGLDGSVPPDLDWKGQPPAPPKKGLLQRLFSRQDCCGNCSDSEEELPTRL

[6] = target: T3, Ephrin type-B receptor 2 (Homo sapiens, UniProt P29323)
T3 sequence (P29323 whole entry): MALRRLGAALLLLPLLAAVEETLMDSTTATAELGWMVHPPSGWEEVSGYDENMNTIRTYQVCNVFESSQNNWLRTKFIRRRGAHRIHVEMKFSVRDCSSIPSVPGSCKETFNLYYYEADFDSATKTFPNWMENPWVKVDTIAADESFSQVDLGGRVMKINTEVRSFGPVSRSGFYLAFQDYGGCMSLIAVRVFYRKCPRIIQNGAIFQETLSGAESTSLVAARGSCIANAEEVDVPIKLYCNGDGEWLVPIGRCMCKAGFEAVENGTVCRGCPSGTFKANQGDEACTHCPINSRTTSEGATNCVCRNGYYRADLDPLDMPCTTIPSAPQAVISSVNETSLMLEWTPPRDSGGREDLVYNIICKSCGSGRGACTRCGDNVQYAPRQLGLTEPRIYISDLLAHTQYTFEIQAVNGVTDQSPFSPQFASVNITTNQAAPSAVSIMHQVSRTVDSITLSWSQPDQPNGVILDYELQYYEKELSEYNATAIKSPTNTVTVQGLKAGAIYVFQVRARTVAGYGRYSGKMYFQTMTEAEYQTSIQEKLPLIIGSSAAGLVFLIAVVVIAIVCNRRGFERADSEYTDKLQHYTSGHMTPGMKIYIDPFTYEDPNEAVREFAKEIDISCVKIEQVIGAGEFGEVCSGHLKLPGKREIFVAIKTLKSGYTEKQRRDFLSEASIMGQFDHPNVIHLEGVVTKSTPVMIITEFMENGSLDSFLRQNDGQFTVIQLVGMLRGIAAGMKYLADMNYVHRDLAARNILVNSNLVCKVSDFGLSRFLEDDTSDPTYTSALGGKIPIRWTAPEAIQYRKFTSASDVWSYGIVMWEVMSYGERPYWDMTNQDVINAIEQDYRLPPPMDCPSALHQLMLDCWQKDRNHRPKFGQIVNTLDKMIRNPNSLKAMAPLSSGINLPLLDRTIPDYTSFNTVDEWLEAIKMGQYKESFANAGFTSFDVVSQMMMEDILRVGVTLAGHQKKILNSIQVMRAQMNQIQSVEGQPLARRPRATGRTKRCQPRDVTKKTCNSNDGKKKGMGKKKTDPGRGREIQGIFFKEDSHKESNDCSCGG

[7] = target: BMP-2-inducible protein kinase (Homo sapiens, UniProt Q9NSY1)
BMP-2-inducible protein kinase, sequence (Q9NSY1 whole entry): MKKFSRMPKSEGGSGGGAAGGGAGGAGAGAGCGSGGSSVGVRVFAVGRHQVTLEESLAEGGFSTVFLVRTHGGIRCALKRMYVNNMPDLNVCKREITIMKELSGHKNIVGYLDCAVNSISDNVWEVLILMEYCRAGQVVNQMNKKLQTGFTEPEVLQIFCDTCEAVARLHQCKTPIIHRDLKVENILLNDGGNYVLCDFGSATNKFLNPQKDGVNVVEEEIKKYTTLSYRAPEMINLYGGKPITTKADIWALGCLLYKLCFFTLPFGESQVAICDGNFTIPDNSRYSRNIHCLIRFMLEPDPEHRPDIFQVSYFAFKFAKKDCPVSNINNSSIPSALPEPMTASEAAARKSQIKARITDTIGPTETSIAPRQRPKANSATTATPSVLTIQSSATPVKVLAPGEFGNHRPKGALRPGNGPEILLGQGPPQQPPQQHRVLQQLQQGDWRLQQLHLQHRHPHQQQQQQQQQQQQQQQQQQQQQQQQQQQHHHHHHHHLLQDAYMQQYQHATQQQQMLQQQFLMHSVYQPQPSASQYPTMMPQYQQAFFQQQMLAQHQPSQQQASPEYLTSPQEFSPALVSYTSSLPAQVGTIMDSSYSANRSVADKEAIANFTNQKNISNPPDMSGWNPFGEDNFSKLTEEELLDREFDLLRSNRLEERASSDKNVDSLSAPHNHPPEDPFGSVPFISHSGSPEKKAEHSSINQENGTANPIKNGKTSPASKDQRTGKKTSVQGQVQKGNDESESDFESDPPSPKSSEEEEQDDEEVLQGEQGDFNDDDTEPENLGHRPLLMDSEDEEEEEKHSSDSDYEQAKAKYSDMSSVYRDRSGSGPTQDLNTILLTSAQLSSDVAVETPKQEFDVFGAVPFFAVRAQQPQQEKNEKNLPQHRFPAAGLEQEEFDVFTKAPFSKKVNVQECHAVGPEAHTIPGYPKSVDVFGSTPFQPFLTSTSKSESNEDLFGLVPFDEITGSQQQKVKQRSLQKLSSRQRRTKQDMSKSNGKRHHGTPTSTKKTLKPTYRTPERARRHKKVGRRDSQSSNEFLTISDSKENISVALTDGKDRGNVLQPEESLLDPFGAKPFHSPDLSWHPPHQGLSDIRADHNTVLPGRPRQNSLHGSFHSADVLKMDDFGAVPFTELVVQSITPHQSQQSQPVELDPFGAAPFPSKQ
Also: in the data inactive means no Kd found up to 30 µM.

Cyclin-dependent kinase 13, sequence (Q14004 whole entry): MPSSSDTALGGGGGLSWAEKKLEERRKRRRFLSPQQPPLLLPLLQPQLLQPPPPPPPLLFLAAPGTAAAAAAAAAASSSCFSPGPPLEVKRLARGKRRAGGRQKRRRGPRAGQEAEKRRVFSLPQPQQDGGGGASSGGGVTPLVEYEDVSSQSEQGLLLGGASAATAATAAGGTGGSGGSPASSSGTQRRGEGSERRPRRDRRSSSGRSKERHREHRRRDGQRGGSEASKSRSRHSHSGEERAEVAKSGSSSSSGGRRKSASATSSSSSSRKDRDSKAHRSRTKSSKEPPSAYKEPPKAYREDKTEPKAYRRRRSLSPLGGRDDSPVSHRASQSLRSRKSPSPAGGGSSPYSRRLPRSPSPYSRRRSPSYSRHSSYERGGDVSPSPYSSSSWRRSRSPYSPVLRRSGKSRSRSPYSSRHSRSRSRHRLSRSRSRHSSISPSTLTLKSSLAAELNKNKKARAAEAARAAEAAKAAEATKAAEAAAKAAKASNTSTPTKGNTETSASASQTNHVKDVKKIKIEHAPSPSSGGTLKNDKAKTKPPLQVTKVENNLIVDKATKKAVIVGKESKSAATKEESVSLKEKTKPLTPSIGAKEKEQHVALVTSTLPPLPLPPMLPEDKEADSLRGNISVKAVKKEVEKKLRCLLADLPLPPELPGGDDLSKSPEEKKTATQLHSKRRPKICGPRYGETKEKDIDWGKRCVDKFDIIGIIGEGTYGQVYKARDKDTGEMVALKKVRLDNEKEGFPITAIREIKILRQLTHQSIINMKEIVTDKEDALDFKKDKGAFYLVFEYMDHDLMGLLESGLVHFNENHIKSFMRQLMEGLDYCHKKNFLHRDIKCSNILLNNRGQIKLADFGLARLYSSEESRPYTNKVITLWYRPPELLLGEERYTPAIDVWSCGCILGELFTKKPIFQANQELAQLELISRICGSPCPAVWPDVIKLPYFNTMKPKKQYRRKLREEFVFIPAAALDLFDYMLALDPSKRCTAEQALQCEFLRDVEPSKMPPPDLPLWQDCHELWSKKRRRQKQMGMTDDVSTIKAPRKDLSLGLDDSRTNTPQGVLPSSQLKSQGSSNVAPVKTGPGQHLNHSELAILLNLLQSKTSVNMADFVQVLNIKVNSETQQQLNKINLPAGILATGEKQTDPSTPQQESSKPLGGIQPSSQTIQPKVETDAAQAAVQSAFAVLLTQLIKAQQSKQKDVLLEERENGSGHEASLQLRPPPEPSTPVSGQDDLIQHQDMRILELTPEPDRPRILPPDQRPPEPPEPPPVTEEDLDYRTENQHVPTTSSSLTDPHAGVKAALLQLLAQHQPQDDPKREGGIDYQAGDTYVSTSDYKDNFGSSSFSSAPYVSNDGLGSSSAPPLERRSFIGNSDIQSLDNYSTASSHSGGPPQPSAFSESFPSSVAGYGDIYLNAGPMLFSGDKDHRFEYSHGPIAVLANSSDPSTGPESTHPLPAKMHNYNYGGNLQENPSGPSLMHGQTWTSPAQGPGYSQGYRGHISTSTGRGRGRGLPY

| Kd [1] | Kd [2] | Kd [3] | Kd [4] | Kd [5] | Kd [6] | Kd [7] | SMILES |
| --- | --- | --- | --- | --- | --- | --- | --- |
| > 30 µM (inactive) | > 30 µM (inactive) | > 30 µM (inactive) | > 30 µM (inactive) | > 30 µM (inactive) | > 30 µM (inactive) | > 30 µM (inactive) | Cc1nc2cc(-c3nn(C(C)C)c4ncnc(N)c34)ccc2o1 |
| > 30 µM (inactive) | > 30 µM (inactive) | – | > 30 µM (inactive) | > 30 µM (inactive) | > 30 µM (inactive) | > 30 µM (inactive) | COc1cc(Nc2ncc3c(n2)-c2ccc(Cl)cc2C(c2c(F)cccc2OC)=NC3)ccc1C(=O)O [ALISERTIB] |
| – | > 30 µM (inactive) | > 30 µM (inactive) | 0.012 µM (active) | 13.6 µM | > 30 µM (inactive) | – | O=C(Nc1c[nH]nc1-c1nc2cc(CN3CCOCC3)ccc2[nH]1)NC1CC1 [AT-9283] |
| > 30 µM (inactive) | > 30 µM (inactive) | > 30 µM (inactive) | > 30 µM (inactive) | > 30 µM (inactive) | > 30 µM (inactive) | > 30 µM (inactive) | Cc1cc(C(=O)NOCCO)c(Nc2ccc(I)cc2F)n(C)c1=O [AZD-8330] |
| > 30 µM (inactive) | > 30 µM (inactive) | – | > 30 µM (inactive) | > 30 µM (inactive) | > 30 µM (inactive) | > 30 µM (inactive) | CCn1c(C(=O)N(C2CC2)C2CC2)cc2c3c(ncn3C)c(Nc3cc(C)n(C)n3)nc21 [BMS-911543] |
| > 30 µM (inactive) | > 30 µM (inactive) | > 30 µM (inactive) | > 30 µM (inactive) | > 30 µM (inactive) | > 30 µM (inactive) | > 30 µM (inactive) | COc1cc2ncnc(Oc3cccc(NC(=O)Nc4cc(C(C)(C)C(F)(F)F)on4)c3)c2cc1OC [CEP-32496] |
| – | > 30 µM (inactive) | – | 0.226 µM (active) | > 30 µM (inactive) | > 30 µM (inactive) | > 30 µM (inactive) | NC(=O)c1c(OCc2c(F)cc(Br)cc2F)nsc1NC(=O)NCCCCN1CCCC1 [OSI-632] |
| > 30 µM (inactive) | 0.828 µM (active) | – | > 30 µM (inactive) | > 30 µM (inactive) | > 30 µM (inactive) | 0.015 µM (active) | CC(=O)NCC(=O)N1[C@@H]2CC[C@H]1c1ccc(Nc3ncc(C(F)(F)F)c(NC4CCC4)n3)cc12 [PF-03814735] |
| > 30 µM (inactive) | – | 0.843 µM (active) | 0.451 µM | 1.19 µM | 0.669 µM (active) | 0.695 µM (active) | CCS(=O)(=O)c1cccc(-c2cc(C(=O)NC3CCN(C)CC3)c(C)c3[nH]c4ncc(C)cc4c23)c1 [TAK-901] |

More lines, now with the values behind:

| SMILES | Kd [1] | Kd [2] | Kd [3] | Kd [4] | Kd [5] | Kd [6] | Kd [7] |
| --- | --- | --- | --- | --- | --- | --- | --- |
| C[C@@H](Oc1cc(C(=O)Nc2ccc(C(=O)N3CCN(C)CC3)cc2)nnc1N)c1c(Cl)ccc(F)c1Cl | > 30 µM (inactive) | > 30 µM (inactive) | > 30 µM (inactive) | > 30 µM (inactive) | > 30 µM (inactive) | > 30 µM (inactive) | > 30 µM (inactive) |
| CCNC(=O)C#Cc1ccc2c(c1)NC(=O)/C2=C(\Nc1ccc(CN(C)C)cc1)c1ccccc1 | > 30 µM (inactive) | 1.26 µM (active) | – | > 30 µM (inactive) | > 30 µM (inactive) | > 30 µM (inactive) | > 30 µM (inactive) |
| COCc1c(-c2ccc(NC(=O)Nc3cc(C(F)(F)F)ccc3F)c(F)c2)c2c(N)ncnn2c1CN1CCOCC1 | > 30 µM (inactive) | > 30 µM (inactive) | > 30 µM (inactive) | > 30 µM (inactive) | > 30 µM (inactive) | > 30 µM (inactive) | > 30 µM (inactive) |
| Nc1ncnc2c1c(-c1cccc(OCc3ccccc3)c1)cn2[C@H]1C[C@@H](CN2CCC2)C1 [AEW-541] | > 30 µM (inactive) | 3.77 µM (active) | > 30 µM (inactive) | > 30 µM (inactive) | > 30 µM (inactive) | > 30 µM (inactive) | > 30 µM (inactive) |
| C=CC(=O)Nc1cc2c(Nc3ccc(F)c(Cl)c3)ncnc2cc1C#CC(C)(C)N1CCN(C)CC1 [AV-412 FREE BASE] | > 30 µM (inactive) | > 30 µM (inactive) | > 30 µM (inactive) | > 30 µM (inactive) | > 30 µM (inactive) | > 30 µM (inactive) | > 30 µM (inactive) |
| Cc1cc(Nc2ncc(Cl)c(Nc3ccccc3S(=O)(=O)C(C)C)n2)c(OC(C)C)cc1C1CCNCC1 [CERITINIB] | > 30 µM (inactive) | > 30 µM (inactive) | > 30 µM (inactive) | > 30 µM (inactive) | > 30 µM (inactive) | > 30 µM (inactive) | > 30 µM (inactive) |
| COc1c(OCCCN2CCOCC2)ccc2c1N=C(NC(=O)c1cnc(N)nc1)N1CCN=C21 [COPANLISIB] | > 30 µM (inactive) | > 30 µM (inactive) | > 30 µM (inactive) | > 30 µM (inactive) | > 30 µM (inactive) | > 30 µM (inactive) | > 30 µM (inactive) |
| COCC(=O)NC/C=C/c1ccc2ncnc(Nc3ccc(Oc4ccc(C)nc4)c(C)c3)c2c1 [CP-724714] | > 30 µM (inactive) | > 30 µM (inactive) | > 30 µM (inactive) | > 30 µM (inactive) | > 30 µM (inactive) | > 30 µM (inactive) | > 30 µM (inactive) |
| CCn1cc(-c2ccnc3[nH]c(-c4cccc(CN(C)C)c4)cc23)c(-c2ccc(NC(=O)N(C)C)cc2)n1 [GSK-1070916] | – | > 30 µM (inactive) | 5.95 µM (active) | 3.77 µM (active) | > 30 µM (inactive) | > 30 µM (inactive) | – |
| CC(C)c1cc(CNc2nc(Nc3cc(C4CC4)[nH]n3)cc(N3CCN(C)CC3)n2)on1 [XL-228] | > 30 µM (inactive) | – | 0.006 µM (active) | 0.026 µM (active) | > 30 µM (inactive) | 2.51 µM (active) | 0.014 µM (active) |
| CN1C/C=C/CCOc2cccc(c2)-c2ccnc(n2)Nc2cccc(c2)C1 [ZOTIRACICLIB] | > 30 µM (inactive) | 1.8 µM (active) | – | > 30 µM (inactive) | > 30 µM (inactive) | > 30 µM (inactive) | > 30 µM (inactive) |
